As usually defined, the IC50 is the concentration that gives 50% inhibition.

This note sets out measurements from PubChem BioAssay AID1159559 (GlaxoSmithKline (GSK), 2015).

Active and inactive are the calls of the source.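 The calls were made as follows: active = compounds whose IC50 against parasite growth in infected mouse cells is below 50000 nM; inactive = the rest.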

The test system of the assay is T. cruzi Tulahuen in NIH-3T3, beta-gal fluorescence, 4 d. In words: anti-Chagas amastigote proliferation inhibitors – cell-based (AID 1159559).

Turning to `O=C(CSc1nnc2ccc(-c3ccc(F)cc3)nn12)N1CCCCC1`, the IC50 was 2500 nM.
Under `CN(C)CCN(C)Cc1ccc(Cl)cc1NS(=O)(=O)c1ccc(Cl)c(Cl)c1` stands 1000 nM.
In the case of `O=C(O)[C@H]1C[C@@H]1c1ccc(-c2ccc(CN(CCc3ccccn3)C(=O)C3CCC3)cc2)cc1` it was > 50000 nM (inactive); in that of `O=[N+]([O-])c1ccc(-c2nnn(-c3cccnc3)n2)o1`, 250 nM; in that of `O=C(NC(CO)c1ccc(F)cc1)c1ccc(-c2c[nH]c3ncccc23)s1` (configuration not stated), 10000 nM.
As for `CC1=C(C(=O)Nc2ccc(Cl)cc2)C(c2ccncc2)n2ncc(C(=O)Nc3ccccc3)c2N1` (configuration not stated), the IC50 was 20 nM.
Under `Cc1ccccc1OCC(=O)N1CCCN(c2cccnn2)CC1` stands 320 nM; under `c1ccc(CNc2cccc3ccncc23)cc1`, 6300 nM.
Under `Cc1cc2nc(N3CC[C@H]3C(N)=O)nc(Nc3cc(C4CC4)[nH]n3)c2s1` stands 6300 nM; under `O=C(NCc1ccc(-n2cccc2)cc1)c1nc(Cn2ccc([N+](=O)[O-])n2)no1`, 2500 nM; under `CCS(=O)(=O)c1cccc(C(=O)Nc2nc(-c3ccccn3)cs2)c1`, 1600 nM.
In the case of `CN(C)c1ccc(N)cc1CN(CC1CCCO1)S(C)(=O)=O` (configuration not stated) it was > 50000 nM (inactive); in that of `Nc1nc(-c2ccccn2)nc(N)c1Cc1c(F)cccc1Cl`, 1600 nM; in that of `CCC(=O)Nc1ccccc1C(=O)Nc1ccccn1`, > 50000 nM (inactive).
Consider `CCn1nccc1CN(C)C(=O)C=Cc1ccc(Cl)cc1`, for which the IC50 is 200 nM.
In the case of `Cc1c(C(C)NC(=O)Nc2cccc(Cl)c2)sc2ncnn12` (configuration not stated) it was 130 nM.
For the molecule `CCN(Cc1ccncc1)Cc1ccc(NC(=O)c2cc(-c3ccc(F)cc3)n[nH]2)cc1`, the IC50 was 400 nM.
Regarding `COc1ccc(CN(C)Cc2ccncc2)cc1-c1ccc(S(=O)(=O)NC2CCC2)s1`, the IC50 is 500 nM.
In the case of `Cc1cc(N2CCc3ccccc3C2)nc(Nc2ccc(S(=O)(=O)N3CCOCC3)cc2)n1` it was > 50000 nM (inactive); in that of `CCN(CC)S(=O)(=O)c1ccc(C(=O)Nc2cc(C)nn2-c2nc(C)c(C)c(=O)[nH]2)cc1`, 630 nM; in that of `Cc1cccc(NS(=O)(=O)c2ccc3c(c2)C(=O)c2cc(S(=O)(=O)Nc4cccc(C)c4C)ccc2-3)c1C`, 400 nM.
Under `Cc1nn(-c2nc(N)nc(-c3ccccn3)n2)c(C)c1Cc1ccccc1` stands 2500 nM; under `O=S(=O)(NCC(c1cccnc1)N1CCN(c2ccccc2F)CC1)c1ccc(F)cc1` (configuration not stated), 500 nM.
`COc1cnc2ccc(=O)n(CCN3CCC(NC(=O)c4ccc(Cl)cc4)CC3)c2c1`: the IC50 was 130 nM.
Under `O=C(NC(c1ccc(Cl)cc1)c1cnccn1)C1CCN(C(=O)Nc2cccc(C(F)(F)F)c2)CC1` (configuration not stated) stands 630 nM; under `Cc1nc(-c2ccncc2)ncc1C(C)NC(=O)c1ccc(Cl)s1` (configuration not stated), 25000 nM.
For `c1ccc(Nc2nc3ccccc3[nH]2)nc1`, the IC50 was 7900 nM.
Regarding `COc1ccc(Nc2nc(-c3ccccn3)cc(N3CCCC(O)C3)n2)cc1` (configuration not stated), the IC50 was 630 nM.
Consider `N#Cc1ccc(Br)cc1[N+](=O)[O-]`, for which the IC50 is 250 nM.
Under `O=C(Nc1ccc(C(F)(F)F)cc1)Nc1cccc([N+](=O)[O-])c1` stands 1000 nM; under `Cc1cc(N(C)C)nc2ccc(Cc3cnc(N)nc3N)cc12`, 1300 nM.
`COc1cc(OC)cc(C(NS(=O)(=O)c2ccc(Cl)c(C(F)(F)F)c2)c2nccn2C)c1` (configuration not stated): the IC50 was 4000 nM.
In the case of `CCC(CC)C(=O)Nc1ccc(-c2nnc(-c3ccc(OC)cc3)o2)cc1` it was 5000 nM.
With `CNc1cc(Cn2c(C(=O)c3cc(C)cc(Cl)c3)c(C(C)C)c(=O)[nH]c2=O)ccn1`, the IC50 is 40 nM.
Under `NC(=O)c1ncccc1Nc1nc(NC2CCC(O)CC2)ncc1Br` (configuration not stated) stands 1600 nM; under `CN(Cc1ccc(C(N)=O)cc1)C(c1ccc(F)cc1)c1cccnc1` (configuration not stated), 160 nM.
In the case of `Cc1ccc2c(c1)SC(C(=O)Nc1n[nH]c(-c3ccccn3)n1)C2` (configuration not stated) it was 5000 nM.
